Source: patent publication US20200190136A1, “METHODS FOR GENERATING SMALL MOLECULE DEGRADERS AND DIMERIZERS” (DANA-FARBER CANCER INSTITUTE, INC., priority 2017, published 2020)
“Also recorded” adds a separate entry of the source.

Assays:
IKZF1Δ-CRBN = target: T1, IKZF1Δ-CRBN (Homo sapiens, UniProt Q13422+Q96SW2, DEL197-239); assay: TR-FRET CRBN-IKZF1Δ binding assay
T1 construct: made in house; host or cells: Trichoplusia ni High-Five insect cells (baculovirus)
Method: Before TR-FRET measurements were conducted, the reactions were incubated for 15 min at RT. After excitation of terbium fluorescence at 337 nm, emission at 490 nm (terbium) and 520 nm (BODIPY) were recorded with a 70 μs delay over 600 μs to reduce background fluorescence and the reaction was followed over 30 200 second cycles of each data point using a PHERAstar FS microplate reader (BMG Labtech). The TR-FRET signal of each data point was extracted by calculating the 520/490 nm ratio. The heterobifunctional nature of small molecule degraders results in a three-body binding equilibrium complicated by potential cooperativity or avidity effects arising from protein-protein interactions (Douglass, Miller et al. 2013), all of which precludes direct interpretation of the binding data. […] The peak height of TR-FRET dBET dose response data was calculated in GraphPad Prism 7 using Area Under Curve analysis for three independent replicates (n=3) and the mean peak height and standard deviation calculated.
The standard deviation in IKZF1A TR-FRET compound titrations was calculated from three biological replicates (n=3) as an average of 5 technical replicates per well per experiment, or as an average of 5 technical replicates of single experiment for unlabelled protein titrations.

[1] = system: BRD2BD1, BRD2BD2, BRD3BD1, BRD3BD2, BRD4BD1, BRD4BD2; assay: EGFP/mCherry reporter cellular degradation across individual BET bromodomains; format: cell-based, human; details: for selectivity of BRD4 degradation over BRD2 and BRD3: EGFP/mCherry reporter assay; for degradation activity across BET bromodomains: individual bromodomains of BRD2, BRD3, BRD4
Method: (§1) Stable cell lines expressing eGFP-protein fusion and mCherry reporter were generated using Flip-In 293 system. Plasmid (0.3 μg) and pOG44 (4.7 μg) DNA were preincubated in 100 μL of Opti-MEM I (Gibco, Life Technologies) media containing 0.05 mg/ml Lipofectamine 2000 (Invitrogen) for 20 min and added to Flip-In 293 cells containing 1.9 ml of DMEM media (Gibco, Life Technologies) per well in a 6-well plate format (Falcon, 353046). Cells were propagated after 48 h and transferred into a 10 cm^2 plate (Corning, 430165) in DMEM media containing 50 μg/ml of Hygromycin B (REF 10687010, Invitrogen) as a selection marker. Following 2-3 passage cycle FACS (FACSAria II, BD) was used to enrich for cells expressing eGFP and mCherry.
(§2) Cells were seeded at 30-50% confluency in either 24, 48 or 96 well plates (3524, 3548, 3596 respectively, Costar) a day before compound treatment. Titrated compounds were incubated with cells for 5 h following trypsinisation and resuspention in DMEM media, transferred into 96-well plates (353910, Falcon) and analyzed by flow cytometer (guava easyCyte HT, Millipore). Signal from 5000 cells per well was acquired in singlicate or duplicate and the eGFP and mCherry florescence monitored. Data was analyzed using FlowJo (FlowJo, LCC). […] The eGFP protein abundance relative to mCherry was then quantified as a ten-fold amplified ratio for each individual cell using the formula: 10×eGFP/mCherry. The median of the ratio was then calculated per set, normalized to the median of the DMSO ratio, and is denoted as relative abundance. Standard deviation is calculated from four replicates (n=4) unless described otherwise.

IKZF1, IKZF3 and ZFP91 = assay: Quantitative proteomics (TMT LC-MS3) in MM.1s cells; format: cell-based, human; details: 1 μM, five hours
Method: A micro-BCA assay (Pierce) was used to determine the final protein concentration in the cell lysate. […] Proteins were precipitated using methanol/chloroform. In brief, four volumes of methanol were added to the cell lysate, followed by one volume of chloroform, and finally three volumes of water.

BRD2 [2] = target: T2, BRD2 (Homo sapiens, UniProt P25440); assay: Western blot of BRD2 in HEK293T cells; format: cell-based; details: immunoblot
T2 construct: endogenous in cells; host or cells: HEK293T
T2 sequence (P25440 whole entry): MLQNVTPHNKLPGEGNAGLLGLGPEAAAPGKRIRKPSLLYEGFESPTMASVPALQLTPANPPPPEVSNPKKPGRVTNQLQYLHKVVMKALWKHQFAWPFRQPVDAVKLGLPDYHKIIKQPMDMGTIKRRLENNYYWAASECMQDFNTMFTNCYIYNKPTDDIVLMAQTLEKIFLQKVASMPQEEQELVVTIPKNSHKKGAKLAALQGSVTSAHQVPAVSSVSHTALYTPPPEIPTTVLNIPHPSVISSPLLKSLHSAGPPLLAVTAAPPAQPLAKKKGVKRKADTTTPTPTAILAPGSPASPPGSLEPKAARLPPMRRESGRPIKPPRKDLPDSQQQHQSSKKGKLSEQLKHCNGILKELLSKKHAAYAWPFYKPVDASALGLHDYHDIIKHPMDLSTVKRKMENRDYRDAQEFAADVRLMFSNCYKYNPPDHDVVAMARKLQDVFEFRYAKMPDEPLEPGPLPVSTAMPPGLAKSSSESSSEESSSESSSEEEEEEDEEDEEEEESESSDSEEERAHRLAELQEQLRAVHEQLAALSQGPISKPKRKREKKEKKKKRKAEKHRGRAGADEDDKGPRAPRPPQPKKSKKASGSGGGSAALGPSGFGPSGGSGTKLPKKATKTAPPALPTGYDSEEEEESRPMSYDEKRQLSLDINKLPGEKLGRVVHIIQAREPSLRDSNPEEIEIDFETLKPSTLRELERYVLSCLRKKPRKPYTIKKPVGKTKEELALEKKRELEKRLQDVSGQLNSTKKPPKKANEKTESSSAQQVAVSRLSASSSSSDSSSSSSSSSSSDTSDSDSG
Method: (§3) HEK293T cells were seeded at 90% confluency in 12 well plates (353043, Falcon), left to attach for 1.5 h, followed by the compound treatment for 5 h. Primary and secondary antibodies used included anti-BRD4 at 1:1000 dilution (A301-985A-M, Bethyl Laboratories), anti-BRD2 at 1:2,000 dilution (A302-582A, Bethyl Laboratories), anti-BRD3 at 1:500 dilution (ab56342, Abcam), anti-GAPDH at 1:10,000 dilution (G8795, Sigma), IRDye680 Donkey anti-mouse at 1:10,000 dilution (926-68072, LiCor) and IRDye800 Goat anti-rabbit at 1:10,000 dilution (926-32211, LiCor).

BRD3 [3] = assay: BRD3 bromodomain EGFP/mCherry reporter cellular degradation assay; format: cell-based, human; details: BRD3 bromodomain reporter cells
Method: as §1, with “Following 2-3 passage cycle FACS (FACSAria II, BD) was used to enrich for cells expressing eGFP and mCherry.” left out
as §2, with “The median of the ratio was then calculated per set, normalized to the median of the DMSO ratio, and is denoted as relative abundance.” left out

DDB1ΔB-CRBN / BRD4BD1 = assay: TR-FRET dimerization assay, CRBN with BRD4BD1 wild type and mutants (peak height); format: binding, human; details: BRD4BD1 Q84 mutated to R (as in BRD2) or K, reference to WT
Method: Before TR-FRET measurements were conducted, the reactions were incubated for 15 min at RT. […] The TR-FRET signal of each data point was extracted by calculating the 520/490 nm ratio. […] The peak height of TR-FRET dBET dose response data was calculated in GraphPad Prism 7 using Area Under Curve analysis for three independent replicates (n=3) and the mean peak height and standard deviation calculated.

BRD4 = target: T3, BRD4 (Homo sapiens, UniProt O60885); assay: Western blot of endogenous BRD4 in HEK293T cells; format: cell-based; details: 5 hours, immunoblot
T3 construct: retains activity on endogenous full length BRD4; endogenous in cells; host or cells: HEK293T
Method: as §3

BRD3 [4] = target: T4, BRD3 (Homo sapiens, UniProt Q15059); assay: Western blot of BRD3 in HEK293T cells; format: cell-based; details: immunoblot
T4 construct: endogenous in cells; host or cells: HEK293T
T4 sequence (Q15059 whole entry): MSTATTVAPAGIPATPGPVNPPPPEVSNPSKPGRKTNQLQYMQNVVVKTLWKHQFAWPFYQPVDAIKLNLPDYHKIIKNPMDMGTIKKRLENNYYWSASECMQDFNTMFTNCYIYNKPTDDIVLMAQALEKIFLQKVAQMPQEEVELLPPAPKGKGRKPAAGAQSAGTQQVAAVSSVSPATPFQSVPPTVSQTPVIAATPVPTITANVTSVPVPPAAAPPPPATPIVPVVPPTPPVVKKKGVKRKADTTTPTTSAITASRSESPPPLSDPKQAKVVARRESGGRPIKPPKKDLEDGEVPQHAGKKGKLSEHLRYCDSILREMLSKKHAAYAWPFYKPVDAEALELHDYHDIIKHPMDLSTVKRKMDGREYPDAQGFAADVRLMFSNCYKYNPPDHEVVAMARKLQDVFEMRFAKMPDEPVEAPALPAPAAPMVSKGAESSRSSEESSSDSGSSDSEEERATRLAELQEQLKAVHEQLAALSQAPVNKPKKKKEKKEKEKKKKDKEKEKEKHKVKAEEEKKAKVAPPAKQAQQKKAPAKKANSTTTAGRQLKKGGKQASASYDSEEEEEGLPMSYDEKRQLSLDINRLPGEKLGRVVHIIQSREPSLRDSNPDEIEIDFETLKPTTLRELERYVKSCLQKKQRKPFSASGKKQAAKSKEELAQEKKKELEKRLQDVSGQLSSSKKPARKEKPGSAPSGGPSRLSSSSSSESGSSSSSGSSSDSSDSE
Method: as §3

BRD2 [5] = assay: BRD2 bromodomain EGFP/mCherry reporter cellular degradation assay; format: cell-based, human; details: BRD2 bromodomain reporter cells
Method: as §1, with “Following 2-3 passage cycle FACS (FACSAria II, BD) was used to enrich for cells expressing eGFP and mCherry.” left out
as §2, with “The median of the ratio was then calculated per set, normalized to the median of the DMSO ratio, and is denoted as relative abundance.” left out

BRD4BD1 = target: T5, BRD4BD1 (Homo sapiens, UniProt O60885); assay: BRD4BD1-EGFP/mCherry reporter cellular degradation assay (flow cytometry); format: cell-based; details: BRD4BD1-EGFP reporter cells
T5 construct: expressed in transfected cells
Method: as §1, with “Following 2-3 passage cycle FACS (FACSAria II, BD) was used to enrich for cells expressing eGFP and mCherry.” left out
as §2, with “The median of the ratio was then calculated per set, normalized to the median of the DMSO ratio, and is denoted as relative abundance.” left out

IKZF1Δ = target: T6, IKZF1Δ (Homo sapiens, UniProt Q13422+Q96SW2, DEL197-239); assay: IKZF1Δ-EGFP fusion protein cellular degradation assay; format: cell-based; details: HEK293T cells
T6 construct: expressed in transfected cells
T6 sequence (Q13422 with tags, fused parts or gaps DEL197-239): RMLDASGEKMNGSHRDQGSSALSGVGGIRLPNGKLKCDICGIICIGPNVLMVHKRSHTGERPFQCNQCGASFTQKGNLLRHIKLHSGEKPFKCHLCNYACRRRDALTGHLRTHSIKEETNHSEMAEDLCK
T6 sequence (Q96SW2 whole entry, stated change not applied, the tested form may be a part): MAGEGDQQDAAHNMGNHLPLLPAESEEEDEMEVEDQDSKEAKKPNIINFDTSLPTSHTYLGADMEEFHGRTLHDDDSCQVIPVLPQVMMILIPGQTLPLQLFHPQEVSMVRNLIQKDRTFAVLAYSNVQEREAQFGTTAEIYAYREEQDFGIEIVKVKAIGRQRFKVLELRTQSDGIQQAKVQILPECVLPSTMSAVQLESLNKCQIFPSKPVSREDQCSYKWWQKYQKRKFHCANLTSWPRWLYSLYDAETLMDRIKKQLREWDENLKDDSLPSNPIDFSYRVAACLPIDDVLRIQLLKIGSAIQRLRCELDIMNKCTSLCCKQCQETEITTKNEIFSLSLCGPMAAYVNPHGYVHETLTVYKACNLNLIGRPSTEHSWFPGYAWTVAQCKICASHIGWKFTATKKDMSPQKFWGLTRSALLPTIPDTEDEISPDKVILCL
T6 sequence (Q16531 whole entry partner, the tested form may be a part): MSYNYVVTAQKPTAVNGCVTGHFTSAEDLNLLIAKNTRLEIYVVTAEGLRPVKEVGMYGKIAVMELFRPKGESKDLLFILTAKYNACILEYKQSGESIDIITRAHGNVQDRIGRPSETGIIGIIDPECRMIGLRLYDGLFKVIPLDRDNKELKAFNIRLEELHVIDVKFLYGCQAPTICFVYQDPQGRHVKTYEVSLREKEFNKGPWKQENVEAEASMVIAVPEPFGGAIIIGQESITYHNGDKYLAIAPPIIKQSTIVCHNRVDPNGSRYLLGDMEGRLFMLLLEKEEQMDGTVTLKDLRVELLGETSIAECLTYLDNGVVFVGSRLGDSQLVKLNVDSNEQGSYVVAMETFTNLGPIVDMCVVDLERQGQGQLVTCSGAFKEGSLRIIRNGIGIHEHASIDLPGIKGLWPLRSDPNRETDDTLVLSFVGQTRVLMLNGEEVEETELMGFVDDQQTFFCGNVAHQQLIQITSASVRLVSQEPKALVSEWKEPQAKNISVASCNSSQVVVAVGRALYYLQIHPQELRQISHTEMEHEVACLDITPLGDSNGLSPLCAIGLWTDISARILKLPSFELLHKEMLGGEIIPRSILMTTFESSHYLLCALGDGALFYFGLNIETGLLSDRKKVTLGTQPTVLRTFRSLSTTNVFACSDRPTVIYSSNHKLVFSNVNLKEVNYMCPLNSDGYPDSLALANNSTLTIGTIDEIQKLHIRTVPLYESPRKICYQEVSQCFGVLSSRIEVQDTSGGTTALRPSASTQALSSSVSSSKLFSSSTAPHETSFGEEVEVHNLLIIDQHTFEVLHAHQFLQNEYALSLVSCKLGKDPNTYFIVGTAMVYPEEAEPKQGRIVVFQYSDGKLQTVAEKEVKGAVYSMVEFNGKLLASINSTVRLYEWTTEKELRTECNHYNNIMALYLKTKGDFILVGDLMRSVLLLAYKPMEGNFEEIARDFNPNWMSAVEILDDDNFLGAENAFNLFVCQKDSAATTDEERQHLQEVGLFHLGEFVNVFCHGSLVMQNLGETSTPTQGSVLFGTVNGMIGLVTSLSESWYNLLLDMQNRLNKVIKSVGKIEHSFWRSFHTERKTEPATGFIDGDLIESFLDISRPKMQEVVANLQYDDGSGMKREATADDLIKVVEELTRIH
Method: as §1, with “Following 2-3 passage cycle FACS (FACSAria II, BD) was used to enrich for cells expressing eGFP and mCherry.” left out
as §2, with “The median of the ratio was then calculated per set, normalized to the median of the DMSO ratio, and is denoted as relative abundance.” left out

BRD4BD1 and BRD4BD2 = details: Filippakopoulos, Qi et al. 2010; cited from earlier work

T1 sequence (Q96SW2 whole entry, stated change not applied): as the sequence (Q96SW2 whole entry, stated change not applied, the tested form may be a part) above
T1 sequence (Q13422 with tags, fused parts or gaps DEL197-239): as the sequence (Q13422 with tags, fused parts or gaps DEL197-239) above

With `Cc1sc2c(c1C)C(c1ccc(Cl)cc1)=N[C@@H](CC(=O)NCCOc1cccc3c1C(=O)N(C1CCC(=O)NC1=O)C3=O)c1nnc(C)n1-2` (stereo partly shown) [ZXH-2-42] the “IKZF1-CRBN complex formation induced by compound” value (IKZF1Δ-CRBN) was “greatly reduced compared to their nitrogen analogs”.
For `COC(=O)C[C@@H]1N=C(c2ccc(Cl)cc2)c2c(sc(C(=O)NCCCCNc3cccc4c3C(=O)N(C3CCC(=O)NC3=O)C4=O)c2C)-n2c(C)nnc21` (stereo partly shown) [ZXH-2-184], the “selectivity of BRD4 degradation over BRD2 and BRD3” value [1] was “selective degradation of BRD4; also recorded: selectively targets BRD4 for degradation and spares BRD2 and BRD3”.
For `COC(=O)C[C@@H]1N=C(c2ccc(Cl)cc2)c2c(sc(C(=O)NCCCCCCCCOc3ccc4c(c3)C(=O)N(C3CCC(=O)NC3=O)C4=O)c2C)-n2c(C)nnc21` (stereo partly shown) [ZXH-2-45], the “IKZF1-CRBN complex formation induced by compound” value (IKZF1Δ-CRBN) was “greatly reduced compared to their nitrogen analogs”.
For `COC(=O)C[C@@H]1N=C(c2ccc(Cl)cc2)c2c(sc(C(=O)NCCCCCCCCNC(=O)COc3cccc4c3C(=O)N(C3CCC(=O)NC3=O)C4=O)c2C)-n2c(C)nnc21` (stereo partly shown) [dBET23], the “co-degradation of CRBN-lenalidomide neo-substrates IKZF1, IKZF3 and ZFP91” value (IKZF1, IKZF3 and ZFP91) was “not dBET23 exhibits pronounced co-degradation”.
In the case of `Cc1ncsc1-c1ccc(CNC(=O)[C@@H]2C[C@@H](O)CN2C(=O)[C@@H](NC(=O)COCCOCCOCCNC(=O)C[C@@H]2N=C(c3ccc(Cl)cc3)c3c(sc(C)c3C)-n3c(C)nnc32)C(C)(C)C)cc1` [MZ1, reference compound], the “degradation activity across BET bromodomains” value [1] is reported as “activity on most bromodomains”.
For `COC(=O)C[C@@H]1N=C(c2ccc(Cl)cc2)c2c(sc(C(=O)NCCCCCNc3cccc4c3C(=O)N(C3CCC(=O)NC3=O)C4=O)c2C)-n2c(C)nnc21` (stereo partly shown) [ZXH-03-26], the “degradation of BRD2” value (BRD2 [2]) was “inactive”, the “concentrations at which degradation of BRD3 is spared” value (BRD3 [3]) was > 10 µM and the “complex formation with CRBN (TR-FRET peak height)” value (DDB1ΔB-CRBN / BRD4BD1) was “decreases complex formation with CRBN”. For the same molecule, the “degradation of endogenous BRD4” value (BRD4) was “degrades endogenous BRD4 with comparable efficacy compared to the best pan-BET degrader dBET6”, the “degradation of BRD3” value (BRD3 [4]) was “inactive” and the “selectivity of BRD4 degradation over BRD2 and BRD3” value [1] was “selectively targets BRD4 for degradation and spares BRD2 and BRD3”. The “degradation activity across BET bromodomains” value [1] was “activity exclusively on the first bromodomain of BRD4”, the “concentrations at which degradation of BRD2 is spared” value (BRD2 [5]) was > 10 µM and the “degradation activity on BRD4BD1” value (BRD4BD1) was “active on BRD4BD1”. It also gave a DC50 (BRD4BD1; 5 h, read-out: DC50/5h (half-maximal degradation after 5 hours of treatment)) of ~5 nM.
With `Cc1sc2c(c1C)C(c1ccc(Cl)cc1)=N[C@@H](CC(=O)NCCCCCCCCNC(=O)COc1cccc3c1C(=O)N(C1CCC(=O)NC1=O)C3=O)c1nnc(C)n1-2` (stereo partly shown) [dBET6, reference compound] the “cellular IKZF1 degradation” value (IKZF1Δ) was “relatively ineffective at promoting IKZF1 degradation” and the “IKZF1-CRBN complex formation induced by compound” value (IKZF1Δ-CRBN) was “do not induce IKZF1-CRBN complex formation”.
For `COC(=O)C[C@@H]1N=C(c2ccc(Cl)cc2)c2c(sc(C(=O)NCCCCCCCCOc3cccc4c3C(=O)N(C3CCC(=O)NC3=O)C4=O)c2C)-n2c(C)nnc21` (stereo partly shown) [ZXH-2-43], the “IKZF1-CRBN complex formation induced by compound” value (IKZF1Δ-CRBN) was “greatly reduced compared to their nitrogen analogs”.
In the case of `Cc1sc2c(c1C)C(c1ccc(Cl)cc1)=N[C@@H](CC(=O)OC(C)(C)C)c1nnc(C)n1-2` [JQ1], the “relative affinity for BRD4BD1 and BRD4BD2” value (BRD4BD1 and BRD4BD2) is given as “equal affinities”.
